The source of these data is PubChem BioAssay AID1259407 (Chemical Carcinogenesis Research Information System (CCRIS), 2018).

Structures are written as SMILES. Active and inactive are the calls of the source. The rule behind the calls is not given here.

The series has as its system CCRIS mutagenicity, Ames/micronucleus/aberration tests. Put plainly: CCRIS mutagenicity studies.
Where [1] appears, read: Test System: AMES SALMONELLA TYPHIMURIUM, Strain/Indicator: TA97, Metabolic Activation: NONE, Method: PREINCUBATION
Where [2] appears, read: Test System: AMES SALMONELLA TYPHIMURIUM, Strain/Indicator: TA98, Metabolic Activation: NONE, Method: PREINCUBATION
The mark [3] stands for this setting: Test System: AMES SALMONELLA TYPHIMURIUM, Strain/Indicator: TA98, Metabolic Activation: RAT, LIVER, S-9, AROCLOR 1254, Method: STANDARD PLATE.
Where [4] appears, read: Test System: AMES SALMONELLA TYPHIMURIUM, Strain/Indicator: TA100, Metabolic Activation: NONE, Method: PREINCUBATION
[5] abbreviates: Test System: AMES SALMONELLA TYPHIMURIUM, Strain/Indicator: TA100, Metabolic Activation: NONE, Method: STANDARD PLATE.
The mark [6] stands for this setting: Test System: AMES SALMONELLA TYPHIMURIUM, Strain/Indicator: TA100, Metabolic Activation: RAT, LIVER, S-9, AROCLOR 1254, Method: STANDARD PLATE.
Where [7] appears, read: Test System: AMES SALMONELLA TYPHIMURIUM, Strain/Indicator: TA1535, Metabolic Activation: NONE, Method: PREINCUBATION
Setting [8] is: Test System: AMES SALMONELLA TYPHIMURIUM, Strain/Indicator: TA1535, Metabolic Activation: RAT, LIVER, S-9, AROCLOR 1254, Method: STANDARD PLATE.
Setting [9] is: Test System: AMES SALMONELLA TYPHIMURIUM, Strain/Indicator: TA1538, Metabolic Activation: RAT, LIVER, S-9, AROCLOR 1254, Method: STANDARD PLATE.
The mark [10] stands for this setting: Test System: AMES SALMONELLA TYPHIMURIUM, Strain/Indicator: TA98, Metabolic Activation: NONE, Method: STANDARD PLATE.

In the case of `O=C/C=C/C=C/C=O`, the mutagenic call was “inactive; negative” under setting [1]; “active; positive” (Test System: AMES SALMONELLA TYPHIMURIUM, Strain/Indicator: TA97, Metabolic Activation: NONE, Method: STANDARD PLATE); “inactive; negative” (Test System: AMES SALMONELLA TYPHIMURIUM, Strain/Indicator: TA97, Metabolic Activation: RAT, LIVER, S-9, AROCLOR 1254, Method: PREINCUBATION); “active; positive” (Test System: AMES SALMONELLA TYPHIMURIUM, Strain/Indicator: TA97, Metabolic Activation: RAT, LIVER, S-9, AROCLOR 1254, Method: STANDARD PLATE); “inactive; negative” under setting [2]; “inactive; negative” (Test System: AMES SALMONELLA TYPHIMURIUM, Strain/Indicator: TA98, Metabolic Activation: RAT, LIVER, S-9, AROCLOR 1254, Method: PREINCUBATION). Moreover, the mutagenic call was “inactive; negative” under setting [3]; “inactive; negative” under setting [4]; “inactive; negative” under setting [5]; “inactive; negative” (Test System: AMES SALMONELLA TYPHIMURIUM, Strain/Indicator: TA100, Metabolic Activation: RAT, LIVER, S-9, AROCLOR 1254, Method: PREINCUBATION); “inactive; negative” under setting [6]; “inactive; negative” (Test System: AMES SALMONELLA TYPHIMURIUM, Strain/Indicator: TA102, Metabolic Activation: NONE, Method: PREINCUBATION). Moreover, the mutagenic call is “inactive; negative” (Test System: AMES SALMONELLA TYPHIMURIUM, Strain/Indicator: TA102, Metabolic Activation: RAT, LIVER, S-9, AROCLOR 1254, Method: PREINCUBATION); “inactive; negative” (Test System: AMES SALMONELLA TYPHIMURIUM, Strain/Indicator: TA104, Metabolic Activation: NONE, Method: PREINCUBATION); “inactive; negative” (Test System: AMES SALMONELLA TYPHIMURIUM, Strain/Indicator: TA104, Metabolic Activation: RAT, LIVER, S-9, AROCLOR 1254, Method: PREINCUBATION); “inactive; negative” under setting [7]; “inactive; negative” (Test System: AMES SALMONELLA TYPHIMURIUM, Strain/Indicator: TA1535, Metabolic Activation: RAT, LIVER, S-9, AROCLOR 1254, Method: PREINCUBATION); “inactive; negative” under setting [8]. For the same molecule, the mutagenic call runs as follows: under setting [9], “inactive; negative”; (Test System: CHINESE HAMSTER OVARY, Strain/Indicator: CHO-K1-BH4 (HGPRT), Metabolic Activation: NONE, Method: STANDARD PLATE) “inactive; negative”; (Test System: CHINESE HAMSTER V-79, Strain/Indicator: V-79 (HGPRT)/8-AZAGUANINE, Metabolic Activation: NONE) “active; positive”; (Test System: CHINESE HAMSTER V-79, Strain/Indicator: V-79/6-THIOGUANINE, Metabolic Activation: NONE) “active; positive”; (Test System: E. COLI, Strain/Indicator: WP2 UVRA, Metabolic Activation: NONE, Method: PREINCUBATION) “inactive; negative”; (Test System: E. COLI, Strain/Indicator: WP2 UVRA, Metabolic Activation: RAT, LIVER, S-9, AROCLOR 1254, Method: PREINCUBATION) “inactive; negative”. In addition, the mutagenic call (Test System: UDS RODENT HEPATOCYTES, Strain/Indicator: THY INCORP (NON-S-PHASE), Metabolic Activation: NONE, Method: AUTORADIOGRAPHY) is “inactive; negative”.

In the case of `OCCCCO`, the mutagenic call is “inactive; negative” (Test System: AMES SALMONELLA TYPHIMURIUM, Strain/Indicator: TA97, Metabolic Activation: HAMSTER, LIVER, S-9, AROCLOR 1254 (10 OR 30%), Method: PREINCUBATION); “inactive; negative” under setting [1]; “inactive; negative” (Test System: AMES SALMONELLA TYPHIMURIUM, Strain/Indicator: TA97, Metabolic Activation: RAT, LIVER, S-9, AROCLOR 1254 (10 OR 30%), Method: PREINCUBATION); “inactive; negative” (Test System: AMES SALMONELLA TYPHIMURIUM, Strain/Indicator: TA98, Metabolic Activation: HAMSTER, LIVER, S-9, AROCLOR 1254 (10 OR 30%), Method: PREINCUBATION); “inactive; negative” under setting [2]; “inactive; negative” (Test System: AMES SALMONELLA TYPHIMURIUM, Strain/Indicator: TA98, Metabolic Activation: RAT, LIVER, S-9, AROCLOR 1254 (10 OR 30%), Method: PREINCUBATION). Moreover, the mutagenic call by setting is: (Test System: AMES SALMONELLA TYPHIMURIUM, Strain/Indicator: TA100, Metabolic Activation: HAMSTER, LIVER, S-9, AROCLOR 1254 (10%), Method: PREINCUBATION) “inactive; negative”; (Test System: AMES SALMONELLA TYPHIMURIUM, Strain/Indicator: TA100, Metabolic Activation: HAMSTER, LIVER, S-9, AROCLOR 1254 (30%), Method: PREINCUBATION) “inactive; negative”; under setting [4], “inactive; negative”; (Test System: AMES SALMONELLA TYPHIMURIUM, Strain/Indicator: TA100, Metabolic Activation: RAT, LIVER, S-9, AROCLOR 1254 (10 OR 30%), Method: PREINCUBATION) “inactive; negative”; (Test System: AMES SALMONELLA TYPHIMURIUM, Strain/Indicator: TA1535, Metabolic Activation: HAMSTER, LIVER, S-9, AROCLOR 1254 (10 OR 30%), Method: PREINCUBATION) “inactive; negative”; under setting [7], “inactive; negative”. Further, the mutagenic call (Test System: AMES SALMONELLA TYPHIMURIUM, Strain/Indicator: TA1535, Metabolic Activation: RAT, LIVER, S-9, AROCLOR 1254 (10 OR 30%), Method: PREINCUBATION) was “inactive; negative”.

With `COC(=O)C1=CCCN(C)C1`, the mutagenic call under setting [10] was “inactive; negative”; the mutagenic call (Test System: AMES SALMONELLA TYPHIMURIUM, Strain/Indicator: TA98, Metabolic Activation: RAT, LIVER, S-9, Method: STANDARD PLATE) was “inactive; negative”; the mutagenic call under setting [5] was “active; positive”; the mutagenic call (Test System: AMES SALMONELLA TYPHIMURIUM, Strain/Indicator: TA100, Metabolic Activation: RAT, LIVER, S-9, Method: STANDARD PLATE) was “active; positive”.

In the case of `Cc1c(C)c2c(c(C)c1O)CC[C@@](C)(CCC[C@H](C)CCC[C@H](C)CCCC(C)C)O2`, the mutagenic call under setting [10] was “inactive; negative”; the mutagenic call under setting [3] was “inactive; negative”; the mutagenic call under setting [5] is “inactive; negative”; the mutagenic call under setting [6] is “inactive; negative”; the mutagenic call (Test System: AMES SALMONELLA TYPHIMURIUM, Strain/Indicator: TA1535, Metabolic Activation: NONE, Method: STANDARD PLATE) is “inactive; negative”; the mutagenic call under setting [8] was “inactive; negative”. The mutagenic call runs as follows: (Test System: AMES SALMONELLA TYPHIMURIUM, Strain/Indicator: TA1537, Metabolic Activation: NONE, Method: STANDARD PLATE) “inactive; negative”; (Test System: AMES SALMONELLA TYPHIMURIUM, Strain/Indicator: TA1537, Metabolic Activation: RAT, LIVER, S-9, AROCLOR 1254, Method: STANDARD PLATE) “inactive; negative”; (Test System: AMES SALMONELLA TYPHIMURIUM, Strain/Indicator: TA1538, Metabolic Activation: NONE, Method: STANDARD PLATE) “inactive; negative”; under setting [9], “inactive; negative”; (Test System: E. COLI, Strain/Indicator: WP2, Metabolic Activation: NONE, Method: STANDARD PLATE) “inactive; negative”; (Test System: E. COLI, Strain/Indicator: WP2, Metabolic Activation: RAT, LIVER, S-9, AROCLOR 1254, Method: STANDARD PLATE) “inactive; negative”.

Take `C1=CC2=C3OC3c3cc4c(cc3C2C=C1)c1c(c2ccccc24)O1` (stereo not given): the mutagenic call under setting [5] is “active; positive”.
